Measured values: US6358885B1, “Substituted phenylheterocyclic herbicides” (Mississippi State University, priority 1992, dated 2002)

How the values were obtained:
Test in all cases: Test G preemergence/postemergence greenhouse plant response rating 0 to 100
alfalfa = format: in vivo, Medicago ativa; details: 0 to 100 scale
In short: (§1)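 Greenhouse pots, one species each; non-phytotoxic solvent vehicle. Read-out: visual injury vs untreated, 13–21 DAT. Dash denotes no result.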

annual bluegrass = format: in vivo, Poa annua; details: 0 to 100 scale
In short: as §1

broadleaf signalgrass = format: in vivo, Brachiaria plantaginea; details: 0 to 100 scale
In short: as §1

common purslane = format: in vivo, Portulaca oleracea; details: 0 to 100 scale
In short: as §1

common ragweed = format: in vivo, Ambrosia elatior; details: 0 to 100 scale
In short: as §1

dallisgrass = format: in vivo, Paspalum dilatatum; details: 0 to 100 scale
In short: as §1

goosegrass = format: in vivo, Eleusine indica; details: 0 to 100 scale
In short: as §1

guineagrass = format: in vivo, Panicum maximum; details: 0 to 100 scale
In short: as §1

itchgrass = format: in vivo, Rottboellia exaltata; details: 0 to 100 scale
In short: as §1

johnsongrass = format: in vivo, Sorghum halepense; details: 0 to 100 scale
In short: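 Scoring: visual injury at 13 to 21 days post-application, compared with untreated controls. Planting: one species per pot in greenhouse medium. Dosing: compound in non-phytotoxic solvent, within one day of sowing for preemergence or at 2–4 leaves for postemergence.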

peanut = format: in vivo, Arachis hypoagaea; details: 0 to 100 scale
In short: as §1

pitted morningglory = format: in vivo, Ipomoea lacunosa; details: 0 to 100 scale
In short: as §1

purple nutsedge = format: in vivo, Cyperus rotundus; details: Rate 125 g/ha, 0 to 100 scale
In short: as §1

sandbur = format: in vivo, Cenchrus echinatus; details: 0 to 100 scale
In short: as §1

smooth crabgrass = format: in vivo, Digitaria ischaemum; details: 0 to 100 scale
In short: as §1

yellow nutsedge = format: in vivo, Cyperus esculentus; details: Rate 125 g/ha, 0 to 100 scale
In short: as §1

SMILES: COC(=O)C(C)Oc1cc(-c2nn3c(c2Cl)CCCC3)c(F)cc1Cl (stereo not drawn) [Compound 28]
- Plant response rating, Alfalfa Var. (alfalfa; POSTEMERGENCE, Rate 125 g/ha): 0
- Plant response rating, Alfalfa Var. (alfalfa; POSTEMERGENCE, Rate 250 g/ha): 0
- Plant response rating, Alfalfa Var. (alfalfa; PREEMERGENCE, Rate 125 g/ha): 0
- Plant response rating, Alfalfa Var. (alfalfa; PREEMERGENCE, Rate 250 g/ha): 0
- Plant response rating, Ann Bluegrass (annual bluegrass; POSTEMERGENCE, Rate 125 g/ha): 0
- Plant response rating, Ann Bluegrass (annual bluegrass; POSTEMERGENCE, Rate 250 g/ha): 0
- Plant response rating, Ann Bluegrass (annual bluegrass; PREEMERGENCE, Rate 125 g/ha): 0
- Plant response rating, Ann Bluegrass (annual bluegrass; PREEMERGENCE, Rate 250 g/ha): 0
- Plant response rating, Brdlf Sgnlgrass (broadleaf signalgrass; POSTEMERGENCE, Rate 125 g/ha): 0
- Plant response rating, Brdlf Sgnlgrass (broadleaf signalgrass; POSTEMERGENCE, Rate 250 g/ha): 0
- Plant response rating, Brdlf Sgnlgrass (broadleaf signalgrass; PREEMERGENCE, Rate 125 g/ha): 0
- Plant response rating, Brdlf Sgnlgrass (broadleaf signalgrass; PREEMERGENCE, Rate 250 g/ha): 0
- Plant response rating, Cmn Purslane (common purslane; POSTEMERGENCE, Rate 125 g/ha): 30
- Plant response rating, Cmn Purslane (common purslane; POSTEMERGENCE, Rate 250 g/ha): 60
- Plant response rating, Cmn Purslane (common purslane; PREEMERGENCE, Rate 125 g/ha): 0
- Plant response rating, Cmn Purslane (common purslane; PREEMERGENCE, Rate 250 g/ha): 0
- Plant response rating, Cmn Ragweed (common ragweed; POSTEMERGENCE, Rate 125 g/ha): 100
- Plant response rating, Cmn Ragweed (common ragweed; POSTEMERGENCE, Rate 250 g/ha): 60
- Plant response rating, Cmn Ragweed (common ragweed; PREEMERGENCE, Rate 125 g/ha): 0
- Plant response rating, Cmn Ragweed (common ragweed; PREEMERGENCE, Rate 250 g/ha): 0
- Plant response rating, Dallisgrass (dallisgrass; POSTEMERGENCE, Rate 125 g/ha): 0
- Plant response rating, Dallisgrass (dallisgrass; POSTEMERGENCE, Rate 250 g/ha): 0
- Plant response rating, Dallisgrass (dallisgrass; PREEMERGENCE, Rate 125 g/ha): 0
- Plant response rating, Dallisgrass (dallisgrass; PREEMERGENCE, Rate 250 g/ha): 0
- Plant response rating, Goosegrass (goosegrass; POSTEMERGENCE, Rate 125 g/ha): 0
- Plant response rating, Goosegrass (goosegrass; POSTEMERGENCE, Rate 250 g/ha): 0
- Plant response rating, Goosegrass (goosegrass; PREEMERGENCE, Rate 125 g/ha): 0
- Plant response rating, Goosegrass (goosegrass; PREEMERGENCE, Rate 250 g/ha): 0
- Plant response rating, Guineagrass (guineagrass; POSTEMERGENCE, Rate 125 g/ha): 0
- Plant response rating, Guineagrass (guineagrass; POSTEMERGENCE, Rate 250 g/ha): 0
- Plant response rating, Guineagrass (guineagrass; PREEMERGENCE, Rate 125 g/ha): 0
- Plant response rating, Guineagrass (guineagrass; PREEMERGENCE, Rate 250 g/ha): 0
- Plant response rating, Itchgrass (itchgrass; POSTEMERGENCE, Rate 125 g/ha): 0
- Plant response rating, Itchgrass (itchgrass; POSTEMERGENCE, Rate 250 g/ha): 0
- Plant response rating, Itchgrass (itchgrass; PREEMERGENCE, Rate 125 g/ha): 0
- Plant response rating, Itchgrass (itchgrass; PREEMERGENCE, Rate 250 g/ha): 0
- Plant response rating, Johnsongrass (johnsongrass; POSTEMERGENCE, Rate 125 g/ha): 0
- Plant response rating, Johnsongrass (johnsongrass; POSTEMERGENCE, Rate 250 g/ha): 0
- Plant response rating, Johnsongrass (johnsongrass; PREEMERGENCE, Rate 125 g/ha): 0
- Plant response rating, Johnsongrass (johnsongrass; PREEMERGENCE, Rate 250 g/ha): 0
- Plant response rating, Peanuts (peanut; POSTEMERGENCE, Rate 125 g/ha): 0
- Plant response rating, Peanuts (peanut; POSTEMERGENCE, Rate 250 g/ha): 0
- Plant response rating, Peanuts (peanut; PREEMERGENCE, Rate 125 g/ha): 0
- Plant response rating, Peanuts (peanut; PREEMERGENCE, Rate 250 g/ha): 0
- Plant response rating, Pit Morninglory (pitted morningglory; POSTEMERGENCE, Rate 125 g/ha): 0
- Plant response rating, Pit Morninglory (pitted morningglory; POSTEMERGENCE, Rate 250 g/ha): 0
- Plant response rating, Pit Morninglory (pitted morningglory; PREEMERGENCE, Rate 125 g/ha): 0
- Plant response rating, Pit Morninglory (pitted morningglory; PREEMERGENCE, Rate 250 g/ha): 0
- Plant response rating, Purple Nutsedge (purple nutsedge; POSTEMERGENCE): 0
- Plant response rating, Purple Nutsedge (purple nutsedge; PREEMERGENCE): 0
- Plant response rating, S. Sandbur (sandbur; POSTEMERGENCE, Rate 125 g/ha): 0
- Plant response rating, S. Sandbur (sandbur; POSTEMERGENCE, Rate 250 g/ha): 0
- Plant response rating, S. Sandbur (sandbur; PREEMERGENCE, Rate 125 g/ha): 0
- Plant response rating, S. Sandbur (sandbur; PREEMERGENCE, Rate 250 g/ha): 0
- Plant response rating, Smooth Crabgras (smooth crabgrass; POSTEMERGENCE, Rate 125 g/ha): 0
- Plant response rating, Smooth Crabgras (smooth crabgrass; POSTEMERGENCE, Rate 250 g/ha): 0
- Plant response rating, Smooth Crabgras (smooth crabgrass; PREEMERGENCE, Rate 125 g/ha): 0
- Plant response rating, Smooth Crabgras (smooth crabgrass; PREEMERGENCE, Rate 250 g/ha): 0
- Plant response rating, Yellow Nutsedge (yellow nutsedge; POSTEMERGENCE): 0
- Plant response rating, Yellow Nutsedge (yellow nutsedge; PREEMERGENCE): 0

SMILES: CCCOc1cc(-c2nn3c(c2Cl)CCCC3)c(F)cc1Cl [Compound 23]
- Plant response rating, Alfalfa Var. (alfalfa; POSTEMERGENCE, Rate 125 g/ha): 0
- Plant response rating, Alfalfa Var. (alfalfa; POSTEMERGENCE, Rate 250 g/ha): 0
- Plant response rating, Alfalfa Var. (alfalfa; PREEMERGENCE, Rate 125 g/ha): 0
- Plant response rating, Alfalfa Var. (alfalfa; PREEMERGENCE, Rate 250 g/ha): 0
- Plant response rating, Ann Bluegrass (annual bluegrass; POSTEMERGENCE, Rate 125 g/ha): 0
- Plant response rating, Ann Bluegrass (annual bluegrass; POSTEMERGENCE, Rate 250 g/ha): 0
- Plant response rating, Ann Bluegrass (annual bluegrass; PREEMERGENCE, Rate 125 g/ha): 0
- Plant response rating, Ann Bluegrass (annual bluegrass; PREEMERGENCE, Rate 250 g/ha): 0
- Plant response rating, Brdlf Sgnlgrass (broadleaf signalgrass; POSTEMERGENCE, Rate 125 g/ha): 0
- Plant response rating, Brdlf Sgnlgrass (broadleaf signalgrass; POSTEMERGENCE, Rate 250 g/ha): 0
- Plant response rating, Brdlf Sgnlgrass (broadleaf signalgrass; PREEMERGENCE, Rate 125 g/ha): 0
- Plant response rating, Brdlf Sgnlgrass (broadleaf signalgrass; PREEMERGENCE, Rate 250 g/ha): 0
- Plant response rating, Cmn Purslane (common purslane; POSTEMERGENCE, Rate 125 g/ha): 70
- Plant response rating, Cmn Purslane (common purslane; POSTEMERGENCE, Rate 250 g/ha): 50
- Plant response rating, Cmn Purslane (common purslane; PREEMERGENCE, Rate 125 g/ha): 0
- Plant response rating, Cmn Purslane (common purslane; PREEMERGENCE, Rate 250 g/ha): 100
- Plant response rating, Cmn Ragweed (common ragweed; POSTEMERGENCE, Rate 125 g/ha): 60
- Plant response rating, Cmn Ragweed (common ragweed; POSTEMERGENCE, Rate 250 g/ha): 20
- Plant response rating, Cmn Ragweed (common ragweed; PREEMERGENCE, Rate 125 g/ha): 0
- Plant response rating, Cmn Ragweed (common ragweed; PREEMERGENCE, Rate 250 g/ha): 0
- Plant response rating, Dallisgrass (dallisgrass; POSTEMERGENCE, Rate 125 g/ha): 0
- Plant response rating, Dallisgrass (dallisgrass; POSTEMERGENCE, Rate 250 g/ha): 0
- Plant response rating, Dallisgrass (dallisgrass; PREEMERGENCE, Rate 125 g/ha): 0
- Plant response rating, Dallisgrass (dallisgrass; PREEMERGENCE, Rate 250 g/ha): 20
- Plant response rating, Goosegrass (goosegrass; POSTEMERGENCE, Rate 125 g/ha): 0
- Plant response rating, Goosegrass (goosegrass; POSTEMERGENCE, Rate 250 g/ha): 0
- Plant response rating, Goosegrass (goosegrass; PREEMERGENCE, Rate 125 g/ha): 90
- Plant response rating, Goosegrass (goosegrass; PREEMERGENCE, Rate 250 g/ha): 40
- Plant response rating, Guineagrass (guineagrass; POSTEMERGENCE, Rate 125 g/ha): 0
- Plant response rating, Guineagrass (guineagrass; POSTEMERGENCE, Rate 250 g/ha): 0
- Plant response rating, Guineagrass (guineagrass; PREEMERGENCE, Rate 125 g/ha): 0
- Plant response rating, Guineagrass (guineagrass; PREEMERGENCE, Rate 250 g/ha): 0
- Plant response rating, Itchgrass (itchgrass; POSTEMERGENCE, Rate 125 g/ha): 0
- Plant response rating, Itchgrass (itchgrass; POSTEMERGENCE, Rate 250 g/ha): 0
- Plant response rating, Itchgrass (itchgrass; PREEMERGENCE, Rate 125 g/ha): 0
- Plant response rating, Itchgrass (itchgrass; PREEMERGENCE, Rate 250 g/ha): 0
- Plant response rating, Johnsongrass (johnsongrass; POSTEMERGENCE, Rate 125 g/ha): 0
- Plant response rating, Johnsongrass (johnsongrass; POSTEMERGENCE, Rate 250 g/ha): 0
- Plant response rating, Johnsongrass (johnsongrass; PREEMERGENCE, Rate 125 g/ha): 0
- Plant response rating, Johnsongrass (johnsongrass; PREEMERGENCE, Rate 250 g/ha): 0
- Plant response rating, Peanuts (peanut; POSTEMERGENCE, Rate 125 g/ha): 0
- Plant response rating, Peanuts (peanut; POSTEMERGENCE, Rate 250 g/ha): 0
- Plant response rating, Peanuts (peanut; PREEMERGENCE, Rate 125 g/ha): 0
- Plant response rating, Peanuts (peanut; PREEMERGENCE, Rate 250 g/ha): 0
- Plant response rating, Pit Morninglory (pitted morningglory; POSTEMERGENCE, Rate 125 g/ha): 0
- Plant response rating, Pit Morninglory (pitted morningglory; POSTEMERGENCE, Rate 250 g/ha): 0
- Plant response rating, Pit Morninglory (pitted morningglory; PREEMERGENCE, Rate 125 g/ha): 0
- Plant response rating, Pit Morninglory (pitted morningglory; PREEMERGENCE, Rate 250 g/ha): 0
- Plant response rating, Purple Nutsedge (purple nutsedge; POSTEMERGENCE): 0
- Plant response rating, Purple Nutsedge (purple nutsedge; PREEMERGENCE): 0
- Plant response rating, S. Sandbur (sandbur; POSTEMERGENCE, Rate 125 g/ha): 0
- Plant response rating, S. Sandbur (sandbur; POSTEMERGENCE, Rate 250 g/ha): 0
- Plant response rating, S. Sandbur (sandbur; PREEMERGENCE, Rate 125 g/ha): 0
- Plant response rating, S. Sandbur (sandbur; PREEMERGENCE, Rate 250 g/ha): 0
- Plant response rating, Smooth Crabgras (smooth crabgrass; POSTEMERGENCE, Rate 125 g/ha): 0
- Plant response rating, Smooth Crabgras (smooth crabgrass; POSTEMERGENCE, Rate 250 g/ha): 0
- Plant response rating, Smooth Crabgras (smooth crabgrass; PREEMERGENCE, Rate 125 g/ha): 0
- Plant response rating, Smooth Crabgras (smooth crabgrass; PREEMERGENCE, Rate 250 g/ha): 20
- Plant response rating, Yellow Nutsedge (yellow nutsedge; POSTEMERGENCE): 0
- Plant response rating, Yellow Nutsedge (yellow nutsedge; PREEMERGENCE): 0
